Structures can show the parent of a compound that is named as a salt. Where two headings read alike, the source gives them in different places.
How the values were obtained:
K562 cells = experiment: cells; settings: Homo sapiens
Procedure: (§1) RPMI1640 medium supplemented with 10% FBS was used as a culture medium for each cells (MV-4-11, MOLM-13 cells, human AML cells, K562 cells, human CML cells). […] The prepared drug-containing plate was stored at −30° C. until use, and thawed before use.
(§2) The suspension of each cells was prepared with 10% FBS RPMI1640 culture medium so as to be 1000 cells/mL (K562) or 10000 cells/mL (MV-4-11, MOLM-13), and seeded on the drug-containing plate (40 μL/well) (day 0). The cells were cultured for additional 3 or 7 days. ATP measurement reagent (CellTiter-Glo (registered trademark, Promega Corporation) 2.0 Assay, model number G9242, Promega Corporation) was added to each well at 10 μL/well, on the day of the drug addition (day 0) and 3 days (day 3) or 7 days (day 7) after the drug addition. After affixing a black sticker on the bottom surface, the mixture was stirred using a microplate mixing deaeration machine (model name, Weltornado FK-62, Sakaki Dengyo Co., Ltd.) (stirring conditions, revolution 9, rotation 7, time 12).
(§3) The cell growth of the drug-added group from day 0 to day 3 or day 7 was calculated as T/C %, when the cell growth of the drug-free group was considered as 100%.

MV-4-11 cells [1] = experiment: cells; settings: Homo sapiens
Procedure: as §1, §2, §3

MOLM-13 cells = experiment: cells; settings: Homo sapiens
Procedure: as §1, §2, §3

[2] = target: T1, menin and MLL (menin, Flag tagged; biotinylated MLL1 peptide 1-46aa) (Homo sapiens, UniProt O00255); experiment: biochemical; settings: 1 nM menin, 10 nM biotinylated MLL1 peptide, AlphaLISA
T1 sequence (O00255 1-610): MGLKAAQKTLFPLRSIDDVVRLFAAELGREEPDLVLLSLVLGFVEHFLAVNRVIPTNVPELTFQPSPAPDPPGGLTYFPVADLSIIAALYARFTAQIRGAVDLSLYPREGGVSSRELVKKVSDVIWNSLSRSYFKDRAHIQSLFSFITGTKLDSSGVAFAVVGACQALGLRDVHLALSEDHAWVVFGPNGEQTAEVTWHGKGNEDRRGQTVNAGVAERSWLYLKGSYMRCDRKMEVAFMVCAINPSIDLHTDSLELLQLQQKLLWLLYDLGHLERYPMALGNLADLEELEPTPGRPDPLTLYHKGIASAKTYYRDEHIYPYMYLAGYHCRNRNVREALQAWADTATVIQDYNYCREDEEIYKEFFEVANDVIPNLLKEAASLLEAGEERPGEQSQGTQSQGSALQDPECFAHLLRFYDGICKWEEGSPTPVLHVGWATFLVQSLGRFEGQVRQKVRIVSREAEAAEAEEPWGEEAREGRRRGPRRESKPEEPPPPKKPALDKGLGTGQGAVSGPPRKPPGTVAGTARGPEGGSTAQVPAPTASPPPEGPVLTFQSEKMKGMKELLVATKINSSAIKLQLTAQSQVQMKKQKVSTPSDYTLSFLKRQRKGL
Procedure: Then, the fluorescence signal by AlphaLISA (registered trademark, PerkinElmer Co., Ltd.) was measured using a plate reader (PerkinElmer Co., Ltd., EnVisionXcite).

[3] = system: MLL-AF9-overexpressing AML-like cells (MA9 cells); experiment: Differentiation-inducing activity in MLL-AF9-overexpressing AML-like cells (flow cytometry of Gr-1 and cKit); format: cell-based, mouse; settings: 7 days, 5 or 20 nM (Ex. 25, 27), 150 or 300 nM (Ex. 26), 50 or 100 nM (Ex. 22); for rate of the myeloid cell differentiation antigen Gr-1-expressing cells in living cells: versus control group (FIG. 10); for rate of the cKit-expressing cells in living cells: versus control group (FIG. 11)
Procedure: The human MLL-AF9 fusion gene was introduced into cKit-positive mononuclear cells isolated from the myeloid of C57BL6 mouse, by retrovirus infection. MLL-AF9-overexpressing AML-like cells (MA9 cells) that acquired abnormal growth ability were established by liquid-culturing the cells after virus infection for a long period of time. Serum-free medium (GlutaMax, P/S, Stem Pro-34 medium containing 10 ng/ml mIL-3, ng/mL mSCF and 10 ng/mL human Oncostatin M) was used as a culture medium.
For the control group, DMSO was added thereto at a final concentration of 0.1% (2 μL/well) (day 0). After culturing for 7 days (day 7), the cells were collected, and blocked with 5% FBS/PBS containing 10% Mouse BD Fc Block (BD) for 10 minutes at room temperature, and then any of various antibodies (Gr-1-FITC or CD117 (cKit)-APC: Biolegend) was added thereto at a final concentration of 0.4 μg/sample, and the mixture was reacted on ice for 30 minutes. Then, dead cell staining dye DAPI (0.2 mg/mL) was added thereto at so as to be […], and the reaction was carried out on ice for additional 2 minutes under shading. Then, the expression level of each surface antigen of the cells was measured by NovoCyte flow cytometer (LMS). The obtained data were analyzed by FlowJo software (Becton Dickinson), and the rate of each surface antigen-expressing cells in the living cells excluding dead cells was graphed.

MV-4-11 cells [4] = settings: Exp. Ex. 3-3, oral, 31 days after transplantation
Procedure: MV-4-11 cells were purchased from ATCC. The female FOX CHASE SCID C.B.17/Icr-scid/scidJcl mice were purchased from Claire Japan. […] The compound was administered as a suspension in 0.5% MC. For the compound-free group, 0.5% MC was administered as a solvent. The estimated individual tumor volume was measured from the day of the grouping to 31 days after the transplantation (test end date).
Tumor growth inhibitory rate %=(1−TVCt/TVCc)×100 TVC=(Individual tumor volume on the test end date)−(Individual tumor volume on the grouping date) TVCt: TVC mean value of the compound administration group TVCc: TVC mean value of the compound-free group

[5] = K562, 72 h, read-out: GI50 (μM) Day3 K562
[6] = MV4-11, 72 h, read-out: GI50 (μM) Day3 MV4;11
[7] = MOLM-13, 72 h, read-out: GI50 (μM) Day3 MOLM-13
[8] = K562, 168 h, read-out: GI50 (μM) Day7 K562
[9] = MV4-11, 168 h, read-out: GI50 (μM) Day7 MV4;11
[10] = MOLM-13, 168 h, read-out: GI50 (μM) Day7 MOLM-13
[11] = IC50, binding inhibitory activity between menin and MLL

Row | Compound | GI50 (K562 cells; [5]) [µM] | GI50 (MV-4-11 cells [1]; [6]) [µM] | GI50 (MOLM-13 cells; [7]) [µM] | IC50 ([2]; cell free IC50 (nM)) [nM] | GI50 (K562 cells; [8]) [µM] | GI50 (MV-4-11 cells [1]; [9]) [µM] | GI50 (MOLM-13 cells; [10]) [µM] | other results
1 | CC(N[C@H]1CC[C@@H](N(C)c2ncnc3sc(CC(F)(F)F)cc23)C1)c1ccccc1 (mixture of isomers) [Example 33, (1R,3S)-N^1-methyl-N^3-(1-phenylethyl)-N^1-[6-(2,2,2-trifluoroethyl)thieno[2,3-d]pyrimidin-4-yl]cyclopentane-1,3-diamine (diastereomer mixture)] | 6.44 | 5.22 | 4.82 | 2420 | – | – | – | –
2 | COc1cncc(-c2ccc(CN[C@@H]3C[C@H](Nc4ncnc5sc(CC(F)(F)F)cc45)C[C@H](OC)C3)cc2)c1 (single isomer, unassigned) [Example 18A, Hydrochloride] | 5.7 | 0.26 | 2.83 | 10.3 | 5.01 | 0.131 | 0.448 | –
3 | COc1cncc(-c2ccc(CN[C@H]3C[C@@H](Nc4ncnc5sc(CC(F)(F)F)cc45)C[C@@H](OC)C3)cc2)c1 (single isomer, unassigned) [Example 18B, Hydrochloride] | 5.18 | 2.16 | 3.08 | 182 | 4.71 | 1.47 | 3.97 | –
4 | COc1cncc(-c2ccc(CN[C@@H]3C[C@H](Nc4ncnc5sc(CC(F)(F)F)cc45)C[C@H](c4ncco4)C3)cc2)c1 (single isomer, unassigned) [Example 19A, Hydrochloride] | 5.51 | 0.489 | 3.2 | 33.5 | 5.39 | 0.295 | 0.906 | –
5 | COc1cncc(-c2ccc(CN[C@H]3C[C@@H](Nc4ncnc5sc(CC(F)(F)F)cc45)C[C@@H](c4ncco4)C3)cc2)c1 (single isomer, unassigned) [Example 19B, Hydrochloride] | 5.45 | 3.18 | 4.03 | 1810 | 5.41 | 2.6 | 5.75 | –
6 | COc1cc(-c2ccc(CN[C@H]3C[C@@H](O)[C@@H](N(C)c4ncnc5sc(CC(F)(F)F)cc45)C3)cc2)cnc1C#N [Example 22, 5-[4-({[(1R,3R,4S)-3-hydroxy-4-{methyl[6-(2,2,2-trifluoroethyl)thieno[2,3-d]pyrimidin-4-yl]amino}cyclopentyl]amino}methyl)phenyl]-3-methoxypyridine-2-carbonitrile Hydrochloride] | – | – | – | 3.8 | – | – | – | rate of the myeloid cell differentiation antigen Gr-1-expressing cells in living cells [3]: increased the rate of Gr-1-positive cells; rate of the cKit-expressing cells in living cells [3]: reduced the rate of cKit-positive cells
7 | CN(c1ncnc2sc(CC(F)(F)F)cc12)[C@H]1C[C@@H](NCc2ccc(-c3cccc4c3cnn4S(C)(=O)=O)cc2)C[C@H]1O [Example 23, (1R,2S,4R)-4-[({4-[1-(methanesulfonyl)-1H-indazol-4-yl]phenyl}methyl)amino]-2-{methyl[6-(2,2,2-trifluoroethyl)thieno[2,3-d]pyrimidin-4-yl]amino}cyclopentan-1-ol Hydrochloride] | – | – | – | 2.8 | – | – | – | Estimated tumor volume (test end date) Mean ± S.E. (MV-4-11 cells [4]; qdx17, 25 mg/kg/day): 616 ± 86; Estimated tumor volume (test end date) Mean ± S.E. (MV-4-11 cells [4]; qdx17, 50 mg/kg/day): 31 ± 10; Estimated tumor volume (test end date) Mean ± S.E. (MV-4-11 cells [4]; qdx17, 100 mg/kg/day): 0 ± 0
8 | COc1nc(N(C)[C@H]2C[C@@H](NCc3ccc(-c4cc(OC)c(OC)nn4)cc3)C[C@H]2O)c2cc(CC(F)(F)F)sc2n1 [Example 27, (1R,2S,4R)-4-({[4-(5,6-dimethoxypyridazin-3-yl)phenyl]methyl}amino)-2-{[2-methoxy-6-(2,2,2-trifluoroethyl)thieno[2,3-d]pyrimidin-4-yl](methyl)amino}cyclopentan-1-ol Hydrochloride] | – | – | – | 1.3 | – | – | – | rate of the myeloid cell differentiation antigen Gr-1-expressing cells in living cells [3]: increased the rate of Gr-1-positive cells; rate of the cKit-expressing cells in living cells [3]: reduced the rate of cKit-positive cells
9 | COc1cc(-c2ccc(CN[C@H]3C[C@@H](O)[C@@H](N(C)c4ncnc5sc(CC(F)(F)F)cc45)C3)cc2)cnc1F.Cl [Example 68, (1R,2S,4R)-4-({[4-(6-fluoro-5-methoxypyridin-3-yl)phenyl]methyl}amino)-2-{methyl[6-(2,2,2-trifluoroethyl)thieno[2,3-d]pyrimidin-4-yl]amino}cyclopentan-1-ol hydrochloride] | – | – | – | – | – | – | – | Estimated tumor volume (test end date) Mean ± S.E. (MV-4-11 cells [4]; qdx17, 25 mg/kg/day): 1151 ± 142; Estimated tumor volume (test end date) Mean ± S.E. (MV-4-11 cells [4]; qdx17, 50 mg/kg/day): 559 ± 104; Estimated tumor volume (test end date) Mean ± S.E. (MV-4-11 cells [4]; qdx17, 100 mg/kg/day): 31 ± 23; IC50 [2, 11]: 1.7 nM
10 | COc1cc(-c2ccc(CN[C@H]3C[C@@H](O)[C@@H](N(C)c4ncncc4Oc4ccc(F)c(F)c4C(=O)N(C(C)C)C(C)C)C3)cc2)nnc1OC [Example 104, 6-[(4-{[(1S,2R,4R)-4-({[4-(5,6-dimethoxypyridazin-3-yl)phenyl]methyl}amino)-2-hydroxycyclopentyl](methyl)amino}pyrimidin-5-yl)oxy]-2,3-difluoro-N,N-di(propan-2-yl)benzamide hydrochloride] | – | – | – | – | – | – | – | GI50 (K562 cells; K562, 72 h, read-out: GI50, cell growth inhibitory activity, K562, day 3): > 5 µM; GI50 (K562 cells; K562, 168 h, read-out: GI50, cell growth inhibitory activity, K562, day 7): > 5 µM; GI50 (MV-4-11 cells [1]; MV4-11, 72 h, read-out: GI50, cell growth inhibitory activity, MV-4-11, day 3): 0.097 µM; GI50 (MV-4-11 cells [1]; MV4-11, 168 h, read-out: GI50, cell growth inhibitory activity, MV-4-11, day 7): 0.066 µM; GI50 (MOLM-13 cells; MOLM-13, 72 h, read-out: GI50, cell growth inhibitory activity, MOLM-13, day 3): 0.7 µM; GI50 (MOLM-13 cells; MOLM-13, 168 h, read-out: GI50, cell growth inhibitory activity, MOLM-13, day 7): 0.187 µM; IC50 [2, 11]: 6.3 nM
11 | COc1ncc(-c2ccc(CN[C@H]3CC[C@@H](N(C)c4ncnc5sc(CC(F)(F)F)cc45)C3)cc2)s1 [Example 130, (1R,3S)—N^3-{[4-(2-methoxy-1,3-thiazol-5-yl)phenyl]methyl}-N^1-methyl-N^1-[6-(2,2,2-trifluoroethyl)thieno[2,3-d]pyrimidin-4-yl]cyclopentane-1,3-diamine Hydrochloride] | – | – | – | – | – | – | – | IC50 [2, 11]: 6.5 nM
